Earlier results on three compounds are cited in patent US6703346B2, “Herbicide compositions comprising imidazolinone acid, methods of preparation, and methods of use” (Platte Chemical Co., priority 2001, dated 2004).

For the series the following is noted: general statement, no measurement described.
Consider `CC(C)C1(C)N=C(c2nc3ccccc3cc2C(=O)O)NC1=O` (stereo not drawn) [imazaquin], for which the pKa entry is recorded as “approximately 3.8”.

As to `CCc1cnc(C2=NC(C)(C(C)C)C(=O)N2)c(C(=O)O)c1` (stereo not drawn) [imazethapyr], the pKa entry is “approximately 3.9”.

Turning to imazamethbenz, the pKa entry was “approximately 2.9”.
